Experiments:
[1] = biological target: T1, Human immunodeficiency virus type 1 integrase (Human immunodeficiency virus 1, UniProt Q7ZJM1); assay: Inhibition of HIV1 integrase assessed as inhibition of strand transfer activity by 32P-labelled assay
[2] = biological target: T1, Human immunodeficiency virus type 1 integrase
Description: Inhibition of HIV1 integrase assessed as inhibition of 3'-end processing by 32P-labelled assay

[3] = biological target: Human immunodeficiency virus type 1 integrase (Human immunodeficiency virus 1) (UniProt Q7ZJM1); assay: Selectivity index, ratio of IC50 for HIV1 integrase 3'-end processing to IC50 for HIV1 integrase strand transfer activity
Chain of Human immunodeficiency virus type 1 integrase (Human immunodeficiency virus 1) (Q7ZJM1 as listed by the source): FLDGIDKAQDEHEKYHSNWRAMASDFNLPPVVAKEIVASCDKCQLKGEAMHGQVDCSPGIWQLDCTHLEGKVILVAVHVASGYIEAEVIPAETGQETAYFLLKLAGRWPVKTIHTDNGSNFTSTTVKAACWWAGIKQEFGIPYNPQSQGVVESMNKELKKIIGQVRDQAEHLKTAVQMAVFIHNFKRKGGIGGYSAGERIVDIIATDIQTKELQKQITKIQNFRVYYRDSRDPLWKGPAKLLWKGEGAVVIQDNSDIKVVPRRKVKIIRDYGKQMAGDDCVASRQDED

T1 sequence (Q7ZJM1 whole entry): as the sequence (Q7ZJM1 as listed by the source) above

| Compound | IC50 [1] [nM] | IC50 [2] [µM] | Ratio IC50 [3] |
| --- | --- | --- | --- |
| Cc1ccc(NS(=O)(=O)c2ccc(NC(=O)c3cc(O)c(O)c(O)c3)cc2)cc1C | 8000 | 8 | – |
| NS(=O)(=O)c1ccc(NC(=O)c2cc(O)c(O)c(O)c2)cc1 | 2000 | 22 | 11 |
| Cc1cc(C)cc(NS(=O)(=O)c2ccc(NC(=O)c3cc(O)c(O)c(O)c3)cc2)c1 | 2500 | 8 | – |
| O=C(Nc1ccc(S(=O)(=O)NCc2ccc(Cl)cc2)cc1)c1cc(O)c(O)c(O)c1 | 2000 | 5 | – |
| CCOc1ccc(NS(=O)(=O)c2ccc(NC(=O)c3cc(O)c(O)c(O)c3)cc2)cc1 | 1300 | 6 | – |
| O=C(Nc1ccc(S(=O)(=O)Nc2ccc([N+](=O)[O-])cc2)cc1)c1cc(O)c(O)c(O)c1 | 3000 | 4 | – |
| CCCCc1ccc(NS(=O)(=O)c2ccc(NC(=O)c3cc(O)c(O)c(O)c3)cc2)cc1 | 2500 | 3 | – |
| CC(=O)Oc1cc(C(=O)Nc2ccc(S(=O)(=O)Nc3ccccc3)cc2)cc(OC(C)=O)c1OC(C)=O | 1600 | 8 | – |
| O=C(/C=C/c1ccc(O)c(O)c1)Nc1ccc(S(=O)(=O)Nc2ccccc2)cc1 | 12000 | 16 | – |
| CC(=O)Oc1cc(C(=O)Nc2ccc(S(=O)(=O)Nc3ccccc3C)cc2)cc(OC(C)=O)c1OC(C)=O | 1600 | > 10 | – |
| COc1ccc(NS(=O)(=O)c2ccc(NC(=O)c3cc(O)c(O)c(O)c3)cc2)cc1 | 4500 | 5 | – |
| O=C(Nc1ccc(S(=O)(=O)Nc2ccc(F)cc2)cc1)c1cc(O)c(O)c(O)c1 | 900 | 7 | – |
| O=C(Nc1ccc(S(=O)(=O)Nc2ccc(Br)cc2)cc1)c1cc(O)c(O)c(O)c1 | 700 | 3 | – |
| O=C(Nc1ccc(S(=O)(=O)Nc2ccc(Cl)cc2)cc1)c1cc(O)c(O)c(O)c1 | 2000 | 6 | – |
| O=C(Nc1ccc(S(=O)(=O)Nc2ccc(F)c(F)c2F)cc1)c1cc(O)c(O)c(O)c1 | 3000 | 7 | – |
| O=C(Nc1ccc(S(=O)(=O)Nc2ccc(Cl)c(Cl)c2)cc1)c1cc(O)c(O)c(O)c1 | 1700 | 5 | – |
| O=C(Nc1ccc(S(=O)(=O)Nc2ccc(F)c(F)c2)cc1)c1cc(O)c(O)c(O)c1 | 1500 | 4 | – |
| Cc1ccccc1NS(=O)(=O)c1ccc(NC(=O)c2cc(O)c(O)c(O)c2)cc1 | 2000 | 7 | – |
| O=C(Nc1ccc(S(=O)(=O)NCc2ccc(F)cc2)cc1)c1cc(O)c(O)c(O)c1 | 2000 | 7 | – |
| O=C(Nc1ccc(S(=O)(=O)Nc2ccccc2)cc1)c1cc(O)c(O)c(O)c1 | 1500 | 7 | – |
| O=C(Nc1ccc(S(=O)(=O)Nc2cccc(Br)c2)cc1)c1cc(O)c(O)c(O)c1 | 700 | 2 | – |
| O=C(Nc1ccc(S(=O)(=O)Nc2ccccc2)cc1)c1ccc(O)c(O)c1 | 50000 | 100 | – |

— ChEMBL document CHEMBL1153503, “Design and synthesis of novel nitrogen-containing polyhydroxylated aromatics as HIV-1 integrase inhibitors from caffeic acid phenethyl ester” (Bioorg Med Chem Lett, 2009)
